Where two headings read alike, the source gives them in different places.
Key:
[1] = Hydrogen peroxide scavenging activity (HPSA); format: biochemical; conditions: antioxidant activity, H2O2 scavenging, 10 min at 37 °C, mean ± SD of triplicates
Experimental: The Manolov et al. method was used to assess the hydrogen peroxide scavenging capability. A 43 mM solution of H2O2 was prepared in potassium phosphate buffer solution (0.2 M, pH 7.4). The analysis of the samples was carried out as follows: in test tubes, 0.6 mL H2O2 (43 mM), 1 mL sample or reference compounds with different concentrations (20–1000 µg/mL), and 2.4 mL potassium phosphate buffer solution were mixed. The mixture was stirred and incubated in the dark for 10 min at 37 °C. Absorbance was measured at 230 nm with a spectrophotometer (Camspec M508, Leeds, UK) against a blank solution containing phosphate buffer and H2O2 without the sample. Ascorbic acid and quercetin were used as reference compounds. The percentage HPSA of the samples was evaluated by comparing with a blank sample and calculated using the following formula: I,%(HPSA)=Ablank−(ATS−ACS)/Ablank×100 where Ablank is the absorbance of the blank sample, ACS is the absorbance of the control sample, and ATS is the absorbance of the test sample.
(§1) All of the analyses were made in triplicates. Data were expressed as mean ± SD. The level of significance was set at p < 0.05. The mean IC50 value was estimated based on three replicates by interpolating the graphical dependence of activity on concentration. Statistical program SPSS 19.0 software was used for data analysis by one-way ANOVA followed by Duncan’s post hoc test to evaluate differences between mean values of activities (SPSS Inc., Chicago, IL, USA).

bovine trypsin = biological target: T1, bovine trypsin (Bos taurus, UniProt P00760); assay: Antitryptic activity (ATA); format: biochemical; conditions: human albumin as substrate, mean ± SD of triplicates
T1 sequence (P00760 24-246): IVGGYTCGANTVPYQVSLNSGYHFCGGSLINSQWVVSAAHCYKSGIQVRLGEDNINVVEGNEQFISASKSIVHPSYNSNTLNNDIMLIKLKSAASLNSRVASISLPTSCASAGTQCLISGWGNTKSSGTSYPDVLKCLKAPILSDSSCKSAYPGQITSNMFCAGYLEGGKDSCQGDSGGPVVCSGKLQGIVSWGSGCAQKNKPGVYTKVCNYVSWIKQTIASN
Experimental: This method is known also as an in vitro anti-arthritic activity. The analysis was performed according to the method of Oyedapo and Femurewa with minor modification as described by Manolov et al.. The reaction mixture was containing 2 mL 0.06 mg/mL bovine trypsin, 1 mL Tris-HCl buffer (20 mM, pH 7.4) and 1 mL test sample or reference (in methanol) of different concentrations (20-1000 μg/mL). The mixture was incubated at 37 °C for 5 min. Then 1 mL of human albumin (4% v/v) was added. The mixture was incubated for an additional 20 min. To the mixture 2 mL of 70% perchloric acid was added for termination of the reaction. The cloudy suspension was cooled and centrifuged at 5000 rpm for 20 min. The absorbance of the supernatant was measured at 280 nm with a spectrophotometer ([…], UK) against control solution. The control solution was sample or reference in methanol with different concentrations. Ibuprofen and flurbiprofen were used as reference compounds. The analysis was performed three times. The percentage of antitryptic activity (ATA) of the samples was evaluated by comparing with a blank sample. The blank sample is prepared as the test sample but with a small exception-perchloric acid is added before albumin. %ATA=Ablank-ATS-ACS/Ablank×100 where Ablank is the absorbance of the blank sample, ACS is the absorbance of the control solution (test sample in different concentrations) and ATS is the absorbance of the test samples. All of the analyses were made in triplicates. Data were expressed as mean ± SD. The level of significance was set at p < 0.05. The mean IC50 value was estimated based on three replicates by interpolating the graphical dependence of activity on concentration. Statistical program SPSS 19.0 software was used for data analysis by one-way ANOVA followed by Duncan's post hoc test to evaluate differences between mean values of activities (SPSS Inc., Chicago, IL, USA).

[2] = Experimental determination of lipophilicity (RM), reversed-phase thin-layer chromatography; format: physicochemical; conditions: dimensionless, from thin-layer chromatography Rf
From the text: Lipophilicity can be assessed through either calculation or experimental methods. In our study, we determined the lipophilicity of the resulting flurbiprofen derivatives using a practical approach, employing reversed-phase thin-layer chromatography, a technique previously reported by Hadjipavlou-Litina.
The method employed for assessing the lipophilicity of flurbiprofen derivatives followed the procedure outlined by Hadjipavlou-Litina.

human albumin = human albumin (Homo sapiens, UniProt P02768); assay: Inhibition of albumin denaturation (IAD); format: biochemical; conditions: heated at 70 °C for 15 min, mean ± SD of triplicates
Experimental: In vitro analysis of anti-inflammatory activity was assessed as inhibition of albumin denaturation (IAD). The analysis was performed according Manolov et al. method. The experiment was performed with human albumin. The solution of albumin (1%) was prepared in distilled water (pH 7.4). The tested and the reference compounds were dissolved firstly in PBS resulting in 1000 μg/mL stock solutions. Then a series of working solutions with different concentrations (20–500 μg/mL) in PBS were prepared. The reaction mixture was containing 2 mL test sample/reference of different concentrations and 1 mL albumin (1%). The mixture was incubated at 37 °C for 15 min and then heated at 70 °C for 15 min in water bath. After cooling, the turbidity was measured at 660 nm with a spectrophotometer (Camspec M508, Leeds, UK). Ibuprofen and flurbiprofen were used as reference compounds. The experiment was performed three times. Percentage inhibition of albumin denaturation (IAD) was calculated against the control. The control sample is albumin with the same concentration dissolved in distilled water. %IAD=Ablank−Asample/Ablank×100
as §1

rats = assay: Prediction of acute rat toxicity by GUSAR software; conditions: from predicted rat LD50, IV

human albumin, sequence (P02768 25-609): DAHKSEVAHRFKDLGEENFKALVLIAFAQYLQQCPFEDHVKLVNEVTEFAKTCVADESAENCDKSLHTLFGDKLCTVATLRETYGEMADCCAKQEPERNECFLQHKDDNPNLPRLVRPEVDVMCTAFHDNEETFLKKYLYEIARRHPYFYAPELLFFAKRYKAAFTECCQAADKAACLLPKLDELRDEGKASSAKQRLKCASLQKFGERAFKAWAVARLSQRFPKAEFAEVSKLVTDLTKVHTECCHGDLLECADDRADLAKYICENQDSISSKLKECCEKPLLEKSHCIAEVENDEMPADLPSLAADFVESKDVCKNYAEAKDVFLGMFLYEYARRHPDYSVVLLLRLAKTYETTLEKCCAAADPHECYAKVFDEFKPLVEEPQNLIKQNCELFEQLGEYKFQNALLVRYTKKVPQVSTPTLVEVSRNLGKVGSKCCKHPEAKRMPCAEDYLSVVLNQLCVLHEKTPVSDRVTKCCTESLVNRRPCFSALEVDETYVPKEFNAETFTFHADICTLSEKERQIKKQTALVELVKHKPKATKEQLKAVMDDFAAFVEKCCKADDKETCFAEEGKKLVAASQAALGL

SMILES	IC50 [1] [µM]	IC50 ([1]; listed as ascorbic acid) [µM]	IC50 (bovine trypsin) [µM]	RM ± SD [2]	IC50 (human albumin; read-out: IAD IC50 ± SD) [µM]	toxicity relative to flurbiprofen, intravenous (rats)	IC50 (human albumin; IAD IC50 ± SD) [µM]	IC50 ([1]; listed as quercetin) [µM]
O=C1O[C@H]([C@@H](O)CO)C(O)=C1O [AA, ascorbic acid]	141 ± 2	141						
CC(C(=O)NCCc1ccccc1)c1ccc(-c2ccccc2)c(F)c1 (centres unmarked) [Compound 4a, 2-(2-fluoro-[1,1′-biphenyl]-4-yl)-N-phenethylpropanamide]	223 ± 6		2260 ± 73	1.24 ± 0.02	198 ± 2.3			
COc1cccc(CCNC(=O)C(C)c2ccc(-c3ccccc3)c(F)c2)c1 (centres unmarked) [Compound 4b, 2-(2-fluoro-[1,1′-biphenyl]-4-yl)-N-(3-methoxyphenethyl)propanamide]	201 ± 3.3		208 ± 15	1.13 ± 0.02	188 ± 3			
COc1ccc(CCNC(=O)C(C)c2ccc(-c3ccccc3)c(F)c2)cc1 (centres unmarked) [Compound 4c, 2-(2-fluoro-[1,1′-biphenyl]-4-yl)-N-(4-methoxyphenethyl)propanamide]	144 ± 10		203 ± 14	1.21 ± 0.02	196.9 ± 0.5			
COc1ccc(CCNC(=O)C(C)c2ccc(-c3ccccc3)c(F)c2)cc1OC (centres unmarked) [Compound 4d, N-(3,4-dimethoxyphenethyl)-2-(2-fluoro-[1,1′-biphenyl]-4-yl)propanamide]	199.5 ± 1.3		215 ± 5	1.33 ± 0.02	173.74 ± 0.13			
CC(C(=O)NCCc1cccc(Cl)c1)c1ccc(-c2ccccc2)c(F)c1 (centres unmarked) [Compound 4e, N-(3-chlorophenethyl)-2-(2-fluoro-[1,1′-biphenyl]-4-yl)propanamide]	199 ± 9		198 ± 14	1.41 ± 0.03	193 ± 2.2	four times greater toxicity than flurbiprofen		
CC(C(=O)O)c1ccc(-c2ccccc2)c(F)c1 (centres unmarked) [Flu, flurbiprofen]	1160 ± 64		441 ± 36	1.37 ± 0.02			339	
CC(C)Cc1ccc(C(C)C(=O)O)cc1 (centres unmarked) [Ibu, ibuprofen, reference compound]	618 ± 25		1260 ± 44	1.11 ± 0.01				
O=c1c(O)c(-c2ccc(O)c(O)c2)oc2cc(O)cc(O)c12 [Qrc, quercetin]	229 ± 6							229
